Laboratory results published in patent US20050267182A1, “Urea derivatives as FLT-3 modulators” (Ambit Biosciences Corporation, priority 2003, published 2005).

Tests used:
FLT3 = molecular target: T1, FLT3 (Homo sapiens, UniProt P36888); test: Binding constant (Kd) measurement, phage-displayed kinase competition binding assay; conditions: for Binding Assay: FLT3(JMminus): FLT3(JMminus) construct
T1 construct: FLT3(DKIN); made in house
T1 sequence (P36888 610-943 limits assumed): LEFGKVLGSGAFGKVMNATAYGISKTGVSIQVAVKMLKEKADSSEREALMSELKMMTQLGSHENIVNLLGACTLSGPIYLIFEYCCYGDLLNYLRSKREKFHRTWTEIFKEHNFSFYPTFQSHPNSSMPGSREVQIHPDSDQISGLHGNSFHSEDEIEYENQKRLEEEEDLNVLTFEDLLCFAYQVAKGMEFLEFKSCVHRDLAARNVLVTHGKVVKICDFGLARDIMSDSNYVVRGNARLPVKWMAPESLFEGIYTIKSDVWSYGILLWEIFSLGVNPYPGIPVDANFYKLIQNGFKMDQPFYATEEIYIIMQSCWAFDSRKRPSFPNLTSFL
Description: Binding Constant (Kd) Measurements for Small-Molecule-Kinase Interactions
The term “ND” represents non-determined values.

MV4,11 cells = test: FLT3 assay using MV4,11 cells (cellular proliferation, MTS); assay type: cell-based, human; conditions: cell assay code CS0001
Procedure: The ability of FLT3 kinase inhibitors to inhibit cellular proliferation was also examined. MV4:11 was a cell line derived from a patient with acute myelogenous leukemia.
FLT3 Assay Using MV4,11 Cells
MV4,11 cells were grown in an incubator @ 37° C. in 5% CO2 in Medium 2 (RPMI, 10% FBS, 4 mM glutamine, Penn/Strep). The cells were counted daily and the cell density was kept between 1e5 and 8e5 cells/ml.
Day One: Enough cells were harvested for experiments to be conducted in 50 ml conical tubes. The harvested cells were spun at 500 g for 5 min at 4° C., the supernatant was then aspirated and the cells were resuspended in the starting volume of 1×PBS. The cells were again spun at 500 g for 5 min at 4° C. and the supernatant again aspirated. The cells were then resuspended in medium 3 (DMEM w/ glut, 10% FBS, Penn/Strep) to a density of 4e5 cells/ml and incubated (37° C. in 5% CO2 O/N.
Day Two: The cells were counted and enough medium 3 was added to decrease density to 2e5 cells/ml. 50 ul (10,000 cells) was aliquoted into each well of a 96 well optical plate using multichannel pipetman. The compound plate was then set up by aliquoting 3 μl of negative control (DMSO) into column 1 of a 96 well 300 ul polypropylene plate, aliquoting 3 μt of positive control (10 mM AB20121) into column 12 of plate, and aliquoting 3 μl of appropriate compounds from serial dilutions into columns 2-11. To each well, 150 μl of Medium 3 was added and 50 μl of compound/medium mixture from compound plate into rows of optical plate in duplicate. The cells were then incubated @ 37° C. in 5% CO2 for 3 days.
Day Five: MTS was thawed in a H2O bath. 20 μl of MTS was added to each well of optical plate and the cells were incubated (37° C. in 5% CO2 for 2 hours. The plate was then placed on a plate shaker for 30 seconds on high speed.

| Compound | Binding Assay: FLT3(JMminus) (FLT3) | Cell Assay: CS0001:IC50 (MV4,11 cells) | Binding Assay: FLT3(DKIN) (FLT3; FLT3(DKIN) construct) | Kd (FLT3; FLT3(DKIN) construct) [µM] |
| --- | --- | --- | --- | --- |
| COc1cc(NC(=O)CCC(=O)N2CCNC(=O)CC2)ccc1NC(=O)Nc1cc(C(C)(C)C)on1 [Compound N172] | + + + | + + | – | – |
| COC(=O)c1ccc(C(=O)Nc2ccc(NC(=O)Nc3cc(C(C)(C)C)on3)cc2)nc1 [Compound N12] | – | + + + | + + + + | – |
| Cc1ccc(NC(=O)c2ccc(NC(=O)Nc3cc(C(C)(C)C)on3)cc2)cc1 [Compound N84] | – | + + + + | + + + + | – |
| CCOC(=O)CCc1c(C)[nH]c(C(=O)Nc2ccc(NC(=O)Nc3cc(C(C)(C)C)on3)cc2)c1C [Compound N83] | – | + + + | + + + + | – |
| CC(C)(C)c1cc(NC(=O)Nc2ccc(NC(=O)c3csc(Cc4cccc(C(F)(F)F)c4)n3)cc2)no1 [Compound N180] | + + + + | + + + | – | – |
| Cc1nc(N)cc(Nc2ccc(NC(=O)Nc3cc(C(C)(C)C)on3)cc2)n1 [Compound O10] | – | + + + | + + + + | – |
| CC(C)(C)c1cc(NC(=O)Nc2ccc(NC(=O)c3c(F)cccc3F)cc2)no1 [Compound N37] | – | + + | + + + | – |
| Cc1cc(C)c(C(=O)Nc2ccc(NC(=O)Nc3cc(C(C)(C)C)on3)cc2)c(C)c1 [Compound N31] | – | + + | + + + | – |
| CC(C)(C)c1cc(NC(=O)Nc2ccc(C(=O)Nc3ccccc3)cc2)no1 [Compound N90] | – | + + + | + + + + | – |
| CC(C)(C)OC(=O)Nc1ccc(NC(=O)Nc2cc(C(C)(C)C)on2)cc1 [Compound N101] | – | + + + | + + + + | – |
| CC(C)(C)c1cc(NC(=O)Nc2ccc(NC(=O)c3cccnc3)cc2)co1 [Compound N1] | – | + + + | + + + + | – |
| Cc1nc(C(=O)Nc2ccc(NC(=O)Nc3cc(C(C)(C)C)on3)cc2)c(C(F)(F)F)o1 [Compound N55] | – | + + + | + + + + | – |
| CC(C)(C)c1cc(NC(=O)Nc2ccc(NC(=O)c3csnn3)cc2)no1 [Compound N14] | – | + + + | + + + + | – |
| CC(C)Oc1ccc(NC(=O)Nc2cc(C(C)(C)C)no2)cc1 [Compound G33] | – | + + + | + + + + | – |
| CC(C)(C)c1cc(NC(=O)Nc2ccc(NC(=O)c3cnc4ccccc4n3)cc2)no1 [Compound N149] | – | + + | + + + | – |
| CC1CN(CCOc2ccc(NC(=O)Nc3cc(C(C)(C)C)on3)cc2)CCN1 (centres unmarked) [Compound G46] | – | + + | + + | – |
| CC(C)(C)c1cc(NC(=O)Nc2ccc(NC(=O)c3cccc(Br)c3)cc2)no1 [Compound N24] | – | + + | + + + | – |
| CC(C)(C)c1cc(NC(=O)Nc2ccc(NC(=O)CCc3ccccc3)cc2)no1 [Compound N96] | – | + + + + | + + + + | – |
| CC(=O)c1c(NC(=O)Nc2ccc(Cl)c(Cl)c2)sc2c1CCCC2 [Compound Z56] | – | + + + | – | > 10 |
| CCOc1ccc(NC(=O)Nc2cc(C(C)(C)C)on2)cc1 [Compound G20] | – | + + + + | + + + + | – |
| CC(C)(C)c1cc(C(=O)Nc2ccc(NC(=O)Nc3cc(C(C)(C)C)on3)cc2)n(-c2ccccc2)n1 [Compound N78] | + + + | + + + | – | – |
| CC1CCCN(CCOc2ccc(NC(=O)Nc3cc(C(C)(C)C)on3)cc2)C1 (centres unmarked) [Compound G44] | – | + + | + + | – |
| CC(C)(C)c1cc(NC(=O)Nc2ccc(NC(=O)c3ccc(-n4cc(-c5ccncn5)cn4)cc3)cc2)no1 [Compound N76] | + + + | + + + | – | – |

| Compound | Binding Assay: FLT3(JMminus) (FLT3) | Cell Assay: CS0001:IC50 (MV4,11 cells) | Binding Assay: FLT3(DKIN) (FLT3; FLT3(DKIN) construct) | Kd (FLT3; FLT3(DKIN) construct) [µM] |
| --- | --- | --- | --- | --- |
| CC(C)(C)c1cc(NC(=O)Nc2ccc(OCc3ccc(C(=O)c4ccccc4)cc3)cc2)no1 [Compound G9] | – | + + + | + + + + | – |
| COc1cccc(COc2ccc(NC(=O)Nc3cc(C(C)(C)C)on3)cc2)c1 [Compound G13] | – | + + + + | + + + + | – |
| CC(C)(C)c1cc(NC(=O)Nc2ccc(NC(=O)c3nnsc3Sc3ccc(C(F)(F)F)cc3)cc2)no1 [Compound N179] | + + + | + + + | – | – |
| COc1cc(OC)nc(C2CCCCC2C(=O)Nc2ccc(NC(=O)Nc3cc(C(C)(C)C)on3)cc2)n1 (centres unmarked) [Compound N129] | + + + | + + + | – | – |
| CC(C)(C)c1cc(NC(=O)Nc2ccc(NC(=O)c3cccc(SC(F)F)c3)cc2)no1 [Compound N25] | – | + + + | + + + + | – |
| O=C(c1cc2ccccc2[nH]1)c1cc2cc(O)ccc2[nH]1 | – | + + + | + + + + | – |
| COC(=O)c1cccc(COc2ccc(NC(=O)Nc3cc(C(C)(C)C)on3)cc2)c1 [Compound G7] | – | + + + | + + + + | – |
| C=C/C(=C\C=C\Cl)NC(=O)Nc1ccc(C(=O)OCCOC)cc1 [Compound Z54] | – | + + | + + | – |
| Cc1ncccc1C(=O)Nc1ccc(NC(=O)Nc2cc(C(C)(C)C)on2)cc1 [Compound N145] | – | + + + | + + + + | – |
| CC(C)(C)c1cc(NC(=O)Nc2ccc(NC(=O)c3ccnc4ccccc34)cc2)no1 [Compound N141] | – | + + + | + + + + | – |
| COc1ccc(NC(=O)Nc2cc(C(F)(F)F)cc(Cl)n2)cc1 [Compound Z71] | – | + + + | + + + + | – |
| CC(C)(C)c1cc(NC(=O)Nc2ccc(OCCN3CCC(O)CC3)cc2)no1 [Compound G48] | – | + + | + + + | – |
| CC(C)(C)c1cc(NC(=O)Nc2ccc(NC(=O)c3nn(-c4cccc(C(F)(F)F)c4)c(=O)cc3O)cc2)no1 [Compound N185] | + + + | + + | – | – |
| CC(C)(C)c1cc(NC(=O)Nc2ccc(NC(=O)CC(N)c3ccccc3Cl)cc2)no1 (centres unmarked) [Compound N44] | – | + + | + + | – |
| COc1cccc(-c2ccc(C(=O)Nc3ccc(NC(=O)Nc4cc(C(C)(C)C)on4)cc3)o2)c1 [Compound N105] | – | + + + | + + + + | – |
| COc1ccc(-c2noc(-c3ccc(NC(=O)Nc4cc(C(C)(C)C)on4)cc3)n2)c2ccccc12 [Compound P3] | – | + + + | + + + | – |
| CNC(=O)c1ccc(NC(=O)Nc2cc(C(C)(C)C)on2)cc1 [Compound N85] | – | + + + | + + + + | – |
| CC(C)(C)c1cc(NC(=O)Nc2ccc(NC(=O)c3cccc4nc5cc(O)cc(O)c5cc34)cc2)no1 [Compound N139] | – | + + + | + + + | – |
| CC(C)(C)c1cc(NC(=O)Nc2ccc(OCCc3ccccn3)cc2)no1 [Compound G27] | – | + + + | + + + + | – |
| CC(C)(C)c1cc(NC(=O)Nc2ccc(NC(=O)C3=Cc4cc(F)cc(S(C)(=O)=O)c4C3)cc2)no1 [Compound N58] | – | + + + | + + + | – |
| COc1cc(OC)nc(Oc2cccnc2C(=O)Nc2ccc(NC(=O)Nc3cc(C(C)(C)C)on3)cc2)n1 [Compound N56] | – | + + + | + + + + | – |
| COc1nc(C)cc(C)c1C(=O)Nc1ccc(NC(=O)Nc2cc(C(C)(C)C)on2)cc1 [Compound N22] | – | + + + | + + + + | – |
| Cc1cc(NC(=O)c2cn3nc(Cl)ccc3n2)ccc1NC(=O)Nc1cc(C(C)(C)C)on1 [Compound N169] | + + + | + + + | – | – |
